# Columns and labels:
# Assay in all cases: relative viability (nuclei count vs DMSO), 5 days (fraction); higher = more cells survive
# SK-LU-1 = system: SK-LU-1
# Outline: (§1)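 Relative viability is defined as nuclei in treated wells over nuclei in vehicle wells. Duplicate plates were run and medians reported. Lung cancer cell lines in 1536-well plates were dosed by pin tool one day after seeding, with one drug or with a fixed anchor-drug dose plus five library-drug doses (not always all listed) in √10 steps, and nuclei were counted after 5 days.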
# HCC-366 = system: HCC-366
# Outline: as §1
# LC-2-ad = system: LC-2-ad
# Outline: as §1
# HCC-78 = system: HCC-78
# Outline: as §1
# NCI-H2405 = system: NCI-H2405
# Outline: as §1
# ABC-1 = system: ABC-1
# Outline: as §1
# NCI-H23 = system: NCI-H23
# Outline: as §1
# NCI-H2023 = system: NCI-H2023
# Outline: as §1
# HARA = system: HARA
# Outline: as §1
# NCI-H2228 = system: NCI-H2228
# Outline: as §1
# NCI-H1793 = system: NCI-H1793
# Outline: as §1
# HCC-15 = system: HCC-15
# Outline: as §1
# NCI-H1944 = system: NCI-H1944
# Outline: as §1
# NCI-H2126 = system: NCI-H2126
# Outline: as §1
# NCI-H2009 = system: NCI-H2009
# Outline: as §1
# EMC-BAC-2 = system: EMC-BAC-2
# Outline: as §1
# NCI-H838 = system: NCI-H838
# Outline: as §1
# NCI-H1993 = system: NCI-H1993
# Outline: as §1
# UMC-11 = system: UMC-11
# Outline: as §1
# COR-L23 = system: COR-L23
# Outline: as §1
# NCI-H1734 = system: NCI-H1734
# Outline: as §1
# A-427 = system: A-427
# Outline: as §1
# ChaGo-K-1 = system: ChaGo-K-1
# Outline: as §1
compound,measurement,setting,value
Oc1nc(-c2ccc(C(F)(F)F)cc2)nc2c1CSCC2 [XAV939] + COc1cccc2cc(-c3nc([C@H]4CC[C@H](C(=O)O)CC4)n4ncnc(N)c34)[nH]c12 [OSI-027] (partner 0.5 µM),relative viability,SK-LU-1; first compound 0.08 µM,0.387
same,relative viability,SK-LU-1; first compound 0.253 µM,0.339
same,relative viability,SK-LU-1; first compound 0.8 µM,0.394
same,relative viability,SK-LU-1; first compound 2.53 µM,0.34
same,relative viability,HCC-366; first compound 0.08 µM,0.962
same,relative viability,HCC-366; first compound 0.253 µM,0.666
same,relative viability,HCC-366; first compound 0.8 µM,1.03
same,relative viability,HCC-366; first compound 2.53 µM,0.767
same,relative viability,LC-2-ad; first compound 0.08 µM,0.907
same,relative viability,LC-2-ad; first compound 0.253 µM,0.815
same,relative viability,LC-2-ad; first compound 0.8 µM,0.889
same,relative viability,LC-2-ad; first compound 2.53 µM,0.864
same,relative viability,HCC-78; first compound 0.08 µM,0.341
same,relative viability,HCC-78; first compound 0.253 µM,0.361
same,relative viability,HCC-78; first compound 0.8 µM,0.356
same,relative viability,HCC-78; first compound 2.53 µM,0.297
same,relative viability,NCI-H2405; first compound 0.08 µM,0.605
same,relative viability,NCI-H2405; first compound 0.253 µM,0.586
same,relative viability,NCI-H2405; first compound 0.8 µM,0.611
same,relative viability,NCI-H2405; first compound 2.53 µM,0.598
same,relative viability,ABC-1; first compound 0.08 µM,0.44
same,relative viability,ABC-1; first compound 0.253 µM,0.532
same,relative viability,ABC-1; first compound 0.8 µM,0.374
same,relative viability,ABC-1; first compound 2.53 µM,0.28
same,relative viability,NCI-H23; first compound 0.08 µM,0.65
same,relative viability,NCI-H23; first compound 0.253 µM,0.555
same,relative viability,NCI-H23; first compound 0.8 µM,0.628
same,relative viability,NCI-H23; first compound 2.53 µM,0.432
same,relative viability,NCI-H2023; first compound 0.08 µM,0.368
same,relative viability,NCI-H2023; first compound 0.253 µM,0.288
same,relative viability,NCI-H2023; first compound 0.8 µM,0.321
same,relative viability,NCI-H2023; first compound 2.53 µM,0.251
same,relative viability,HARA; first compound 0.08 µM,0.436
same,relative viability,HARA; first compound 0.253 µM,0.424
same,relative viability,HARA; first compound 0.8 µM,0.3
same,relative viability,HARA; first compound 2.53 µM,0.467
same,relative viability,NCI-H2228; first compound 0.08 µM,0.704
same,relative viability,NCI-H2228; first compound 0.253 µM,0.467
same,relative viability,NCI-H2228; first compound 0.8 µM,0.479
same,relative viability,NCI-H2228; first compound 2.53 µM,0.546
same,relative viability,NCI-H1793; first compound 0.08 µM,0.308
same,relative viability,NCI-H1793; first compound 0.253 µM,0.232
same,relative viability,NCI-H1793; first compound 0.8 µM,0.298
same,relative viability,NCI-H1793; first compound 2.53 µM,0.27
same,relative viability,HCC-15; first compound 0.08 µM,0.797
same,relative viability,HCC-15; first compound 0.253 µM,0.619
same,relative viability,HCC-15; first compound 0.8 µM,0.738
same,relative viability,HCC-15; first compound 2.53 µM,0.655
same,relative viability,NCI-H1944; first compound 0.08 µM,0.441
same,relative viability,NCI-H1944; first compound 0.253 µM,0.393
same,relative viability,NCI-H1944; first compound 0.8 µM,0.403
same,relative viability,NCI-H1944; first compound 2.53 µM,0.367
same,relative viability,NCI-H2126; first compound 0.08 µM,0.651
same,relative viability,NCI-H2126; first compound 0.253 µM,0.649
same,relative viability,NCI-H2126; first compound 0.8 µM,0.682
same,relative viability,NCI-H2126; first compound 2.53 µM,0.61
same,relative viability,NCI-H2009; first compound 0.08 µM,0.676
same,relative viability,NCI-H2009; first compound 0.253 µM,0.561
same,relative viability,NCI-H2009; first compound 0.8 µM,0.507
same,relative viability,NCI-H2009; first compound 2.53 µM,0.369
same,relative viability,EMC-BAC-2; first compound 0.08 µM,0.402
same,relative viability,EMC-BAC-2; first compound 0.253 µM,0.344
same,relative viability,EMC-BAC-2; first compound 0.8 µM,0.319
same,relative viability,EMC-BAC-2; first compound 2.53 µM,0.236
same,relative viability,NCI-H838; first compound 0.08 µM,0.375
same,relative viability,NCI-H838; first compound 0.253 µM,0.371
same,relative viability,NCI-H838; first compound 0.8 µM,0.365
same,relative viability,NCI-H838; first compound 2.53 µM,0.301
same,relative viability,NCI-H1993; first compound 0.08 µM,0.563
same,relative viability,NCI-H1993; first compound 0.253 µM,0.493
same,relative viability,NCI-H1993; first compound 0.8 µM,0.596
same,relative viability,NCI-H1993; first compound 2.53 µM,0.461
same,relative viability,UMC-11; first compound 0.08 µM,0.456
same,relative viability,UMC-11; first compound 0.253 µM,0.478
same,relative viability,UMC-11; first compound 0.8 µM,0.538
same,relative viability,UMC-11; first compound 2.53 µM,0.44
same,relative viability,COR-L23; first compound 0.08 µM,0.824
same,relative viability,COR-L23; first compound 0.253 µM,0.765
same,relative viability,COR-L23; first compound 0.8 µM,0.77
same,relative viability,COR-L23; first compound 2.53 µM,0.618
same,relative viability,NCI-H1734; first compound 0.08 µM,0.632
same,relative viability,NCI-H1734; first compound 0.253 µM,0.551
same,relative viability,NCI-H1734; first compound 0.8 µM,0.575
same,relative viability,NCI-H1734; first compound 2.53 µM,0.51
same,relative viability,A-427; first compound 0.08 µM,0.49
same,relative viability,A-427; first compound 0.253 µM,0.427
same,relative viability,A-427; first compound 0.8 µM,0.419
same,relative viability,A-427; first compound 2.53 µM,0.393
same,relative viability,ChaGo-K-1; first compound 0.08 µM,0.562
same,relative viability,ChaGo-K-1; first compound 0.253 µM,0.534
same,relative viability,ChaGo-K-1; first compound 0.8 µM,0.533
same,relative viability,ChaGo-K-1; first compound 2.53 µM,0.472
